Experimental data taken from patent publication US11260060B2, “Methods and formulations for treatment of and/or protection against acute liver failure and other hepatotoxic conditions” (EGETIS THERAPEUTICS AB, priority 2016, dated 2022).

Experiments:
[1] = Forced temperature degradation of a NAC/CaM mixture at 70° C. for 6 hours; format: physicochemical; conditions: NAC/CaM mixture in deionised water
Source text: This Example describes short and long term stability studies involving mixtures of Calmangafodipir and NAC. Each mixture was formed by adding CaM (in the form of a trisodium salt powder) and NAC to deionised water and mixing on a Vortex shaker. The solution was then transferred to an amber vial. In these studies, typically no additives or stabilizers were used. Standard degradation studies undertaken at short term used the known method of “forced” temperature degradation by storing solutions at 70° C. for 6 hours (to indicate general longer-term storage performance). Samples were withdrawn at specified time points and analyzed by standard spectroscopic methods for N-acetylcysteine (NAC), Calmangafodipir (CaM) and Calmangafodipir-related substances.

[2] = tested on: acetaminophen-induced ALF in male B6C3F1 mice; assay: Acetaminophen-induced ALF mouse model, ALAT at 12 hours; format: in vivo; conditions: NAC 30-300 mg/kg 1 hour post 300 mg/kg i.p. acetaminophen, FIG. 7
Method: In each experiment, an i.p. injection of 300 mg/kg acetaminophen was made to male B6C3F1 mice to cause acetaminophen-induced ALF. In a first experiment, a 300 mg/kg dosage of NAC was administered 1-6 hours after acetaminophen administration. In a second experiment, NAC was administered in a dosage of 30-300 mg/kg NAC 1 hour after acetaminophen administration. In a third experiment, a dosage of 0.3-10 mg/kg calmangafodipir (CaM) was administered 6 hours post acetaminophen administration. In each experiment, ALAT was measured 12 hours following the i.p. injection of 300 mg/kg acetaminophen. FIGS. 6 to 8 show ALF response to administration of NAC and CaM, as detected by monitoring ALAT. […] FIG. 7 indicates the NAC dose-response of NAC administration of 30-300 mg/kg NAC 1 hour post acetaminophen administration. Mean±SEM ALAT levels at 12 hours following i.p. injection of 300 mg/kg acetaminophen in male B6C3F1 mice (n=4-11 per bar) are shown. […] Median±interquartile ALAT levels at 12 hours following i.p. injection of acetaminophen in male B6C3F1 mice (n=4-16 per bar) are shown. Due to some outlier values, and variability from the two experiments, both of which are not unexpected in such model system studies, the data points are plotted individually as well as the median values±inter-quartile range.

[3] = tested on: acetaminophen-induced ALF in male B6C3F1 mice; assay: Animal deaths in acetaminophen-induced ALF mice within 12 hour sampling period; format: in vivo; conditions: within 12 hours after APAP 300 mg/kg i.p., i.v. treatment 1-6 hours post APAP, pooled doses
Source text: This Example studied the pharmaceutical effects of individual and combined therapies on animal deaths and involved male B6C3F1 mice. Even though serum enzyme activity studies are strongly indicative of liver failure or protection, it is also important to consider other data such as that related to subject animal deaths (%) as a function of the pharmacological treatment. The experiments of this Example studied the pharmaceutical effects of individual and combined therapies on animal deaths in male B6C3F1 mice. The mice were fasted for 8-10 hours and ALF was induced with 300 mg/kg acetaminophen (APAP), i.p., with treatment as specified in the following test groups: • APAP control (n=81, APAP 300 mg/kg i.p.), • NAC (n=53, 30-300 mg/kg i.v., 1-6 hours post APAP), • CaM (n=97, 0.3-10 mg/kg i.v., 1-6 hours post APAP), • CaDPDP (n=10, 3-10 mg/kg i.v., 6 hours post APAP), and • NAC/CaM (n=28, NAC 300 mg/kg, combined with 0.3-10 mg/kg CaM i.v., 2.5-6 hours post APAP).

Row | Compound | concentration of NAC during forced degradation [1] | NAC dose-response of ALAT levels [2] | Deaths, % [3] | Deaths, no. [3] | decrease in CaM concentration during forced degradation [1] | Deaths, % ([3]; listed as calmangafodipir)
1 | CC(=O)N[C@@H](CS)C(=O)O [NAC, N-acetylcysteine] | remained constant | No clear dose-response could be detected | 8% | 4 | – | –
2 | calmangafodipir [CaM] | – | – | 8% | 8 | about 1 % per hour | 8%
